A word on the half-life: it is the time needed for the level to fall by half in the phase considered.

Counter-ions that a name gives are not always drawn.

For data set [1] the following is noted: cited from earlier work.
For data set [2] the following is noted: in vivo; cited from earlier work.
For data set [3] the following is noted: FIG. 6. An excerpt: FIG. 6 illustrates blood plasma concentrations at various times achieved through various means of delivery. This figure illustrates the time necessary to achieve a particular blood plasma concentration.
The conditions of data set [4]: in vivo; cited from earlier work. The source holds these as a separate data set.

Consider `CN(C)CCC=C1c2ccccc2C=Cc2ccccc21` [Cyclobenzaprine hydrochloride, cyclobenzaprine hydrochloride], for which, in data set [1] (alcohol), the solubility in alcohol result is “freely soluble”. For the same compound, the “solubility in hydrocarbon solvents” value in data set [1] (hydrocarbon solvents) is “insoluble”. Besides, in data set [1] (isopropanol), the solubility in isopropanol entry is “sparingly soluble”. For the same compound, the solubility in water result in data set [1] (water) is on record as “freely soluble”.
On to `CN(C)CCC=C1c2ccccc2C=Cc2ccccc21` [cyclobenzaprine], for which the reported side effects entry in data set [2] is “sedation and dry mouth”. Also, the colonic absorption result in data set [3] is “colonic absorption”. Also, the half-life in data set [4] is 24 to 72 h.

Values taken from patent US20040197407A1, “Methods and dosage forms with modified layer geometry” (priority 2003, published 2004).
